Measured values: ChEMBL document CHEMBL1136642, “Substituted 4-methylquinolines as a new class of anti-tuberculosis agents” (Bioorg Med Chem Lett, 2003)
Values after ≈ are worked out from the molar mass of the structure shown.

Columns and labels:
[1] = system: Mycobacterium tuberculosis; assay: In vitro anti-mycobacterial activity against Mycobacterium tuberculosis H37Rv; type: functional; set-up: concentration or dose not given beside the values
[2] = system: Mycobacterium tuberculosis; assay: Minimum inhibitory concentration required to inhibit 90% of the inoculum of tuberculosis H37Rv; type: functional
[3] = system: Mycobacterium tuberculosis; assay: Minimum inhibitory concentration against Mycobacterium tuberculosis strain, Erdman; type: functional
[4] = system: Mycobacterium tuberculosis; assay: Minimum bactericidal concentration (MBC) against INH-R; type: functional
[5] = system: Mycobacterium tuberculosis; assay: Minimum inhibitory concentration against Mycobacterium tuberculosis strain, KM-R; type: functional
[6] = system: Mycobacterium tuberculosis; assay: Minimum bactericidal concentration (MBC) against RMP-R; type: functional
[7] = Ratio of minimum bactericidal concentration (MBC) against INH-R to that of minimum inhibitory concentration (MIC) to H37Rv in Alamar assay(Mycobacterium tuberculosis); type: functional
[8] = system: Mycobacterium tuberculosis; assay: Minimum inhibitory concentration against Mycobacterium tuberculosis strain, INH-R; type: functional
[9] = Ratio of minimum bactericidal concentration (MBC) against RMP-R to that of minimum inhibitory concentration (MIC) to H37Rv in Alamar assay(Mycobacterium tuberculosis); type: functional
[10] = system: Mycobacterium tuberculosis; assay: Minimum inhibitory concentration against Mycobacterium tuberculosis strain, EMB-R; type: functional
[11] = system: Mycobacterium tuberculosis; assay: Minimum inhibitory concentration against Mycobacterium tuberculosis strain, RMP-R; type: functional
[12] = system: Mycobacterium tuberculosis; assay: Minimum bactericidal concentration (MBC) against H37Rv; type: functional
[13] = Ratio of minimum bactericidal concentration (MBC) against H37Rv to that of minimum inhibitory concentration (MIC) to H37Rv in Alamar assay(Mycobacterium tuberculosis); type: functional
[14] = system: Mycobacterium tuberculosis; assay: Minimum inhibitory concentration against Mycobacterium tuberculosis strain, CIP-R; type: functional
Vero = assay: In vitro cytotoxicity was determined against VERO cells; type: functional, cell-based; conditions: Chlorocebus sabaeus
[15] = system: Mycobacterium tuberculosis; assay: Minimum inhibitory concentration against Mycobacterium tuberculosis strain H37Rv, using Alamar assay; type: functional

SMILES	Inhibition [1] [%]	MIC [2] [µg/mL]	other results
CCCc1cc(C)c2cccc(CCC)c2n1	36	> 6.25	–
CCCCc1cc(C)c2ccccc2n1	28	> 6.25	–
CCCCCc1cc(C)c2cccc(CCCCC)c2n1	29	> 6.25	–
Cc1cc(C(C)C)nc2ccccc12	57	> 6.25	–
CCCc1cc(C)c2ccccc2n1	30	> 6.25	–
Cc1cc(C2CCC2)nc2c(C3CCC3)cccc12	100	12.5 (≈ 49.7 µM)	–
CCCCCCc1cc(C)c2ccccc2n1	20	> 6.25	–
CCCCc1cc(C)c2cccc(CCCC)c2n1	33	6.25 (≈ 24.5 µM)	–
CCCCCc1cc(C)c2ccccc2n1	24	> 6.25	–
Cc1cc(C2CC2)nc2ccccc12	29	> 6.25	–
Cc1ccnc2ccccc12	0	> 6.25	–
Cc1cc(C2CCCCC2)nc2c(C3CCCCC3)cccc12	53	> 6.25	–
Cc1cc(C2CCCCC2)nc2ccccc12	16	> 6.25	–
Cc1cc(C2CCCC2)nc2c(C3CCCC3)cccc12	100	> 6.25	MIC [3]: 50 µg/mL (≈ 179 µM); MBC [4]: 100 µg/mL (≈ 358 µM); MIC [5]: 25 µg/mL (≈ 89.5 µM); MBC [6]: 200 µg/mL (≈ 716 µM); Ratio [7]: 4 µg/mL; MIC [8]: 12.5 µg/mL (≈ 44.7 µM); Ratio [9]: 8 µg/mL; MIC [10]: 12.5 µg/mL (≈ 44.7 µM); MIC [11]: 12.5 µg/mL (≈ 44.7 µM); MBC [12]: 50 µg/mL (≈ 179 µM); Ratio [13]: 2 µg/mL; MIC [14]: 12.5 µg/mL (≈ 44.7 µM); IC50 (Vero): > 50 µg/mL; MIC [15]: 25 µg/mL (≈ 89.5 µM)
Cc1cc(C23CC4CC(CC(C4)C2)C3)nc2ccccc12	76	> 69.2	–
Cc1cc(C2CCC2)nc2ccccc12	67	> 6.25	–
CCCCCCc1cc(C)c2cccc(CCCCCC)c2n1	23	> 6.25	–
Cc1cc(C2CCCC2)nc2ccccc12	74	> 6.25	–
Cc1cc(C(C)C)nc2c(C(C)C)cccc12	71	> 6.25	–
